How the values were obtained:
Test in all cases: relative viability (nuclei count vs DMSO), 5 days (fraction); higher = more cells survive
IPA-3 + AZD7762 = compound: C1=CC=C2C(=C1)C=CC(=C2SSC3=C(C=CC4=CC=CC=C43)O)O [IPA-3] + NC(=O)Nc1cc(-c2cccc(F)c2)sc1C(=O)N[C@H]1CCCNC1 [AZD7762] (partner 0.2 µM)
Procedure, shortened: (§1)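 Lung cancer cell lines, seeded in 1536-well plates, were treated the following day by pin tool with a single drug or with five library-drug doses (not always all listed) in √10 steps on top of a fixed anchor-drug dose. Cells were fixed and nuclei stained in one step after 5 days, and nuclei were counted. Relative viability is the nuclei count for treated wells divided by that for vehicle wells, reported as medians of duplicate plates.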

RAF265 + Olaparib = compound: Cn1c(Nc2ccc(C(F)(F)F)cc2)nc2cc(Oc3ccnc(-c4ncc(C(F)(F)F)[nH]4)c3)ccc21 [RAF265] + O=C(c1cc(Cc2n[nH]c(=O)c3ccccc23)ccc1F)N1CCN(C(=O)C2CC2)CC1 [Olaparib] (partner 8 µM)
Procedure, shortened: as §1

IPA-3 + Dasatinib = compound: C1=CC=C2C(=C1)C=CC(=C2SSC3=C(C=CC4=CC=CC=C43)O)O [IPA-3] + Cc1nc(Nc2ncc(C(=O)Nc3c(C)cccc3Cl)s2)cc(N2CCN(CCO)CC2)n1 [Dasatinib] (partner 0.075 µM)
Procedure, shortened: as §1

Doramapimod + AZD7762 = compound: Cc1ccc(-n2nc(C(C)(C)C)cc2NC(=O)Nc2ccc(OCCN3CCOCC3)c3ccccc23)cc1 [Doramapimod] + NC(=O)Nc1cc(-c2cccc(F)c2)sc1C(=O)N[C@H]1CCCNC1 [AZD7762] (partner 0.2 µM)
Procedure, shortened: as §1

Row | Cell Line | relative viability (IPA-3 + AZD7762; first compound 0.2 µM) | relative viability (IPA-3 + AZD7762; first compound 0.6325 µM) | relative viability (IPA-3 + AZD7762; first compound 2 µM) | relative viability (IPA-3 + AZD7762; first compound 6.325 µM) | relative viability (IPA-3 + AZD7762; first compound 20 µM) | relative viability (RAF265 + Olaparib; first compound 0.01 µM) | relative viability (RAF265 + Olaparib; first compound 0.03162 µM) | relative viability (RAF265 + Olaparib; first compound 0.1 µM) | relative viability (RAF265 + Olaparib; first compound 0.3162 µM) | relative viability (RAF265 + Olaparib; first compound 1 µM) | relative viability (IPA-3 + Dasatinib; first compound 0.2 µM) | relative viability (IPA-3 + Dasatinib; first compound 0.6325 µM) | relative viability (IPA-3 + Dasatinib; first compound 2 µM) | relative viability (IPA-3 + Dasatinib; first compound 6.325 µM) | relative viability (IPA-3 + Dasatinib; first compound 20 µM) | relative viability (Doramapimod + AZD7762; first compound 0.02 µM) | relative viability (Doramapimod + AZD7762; first compound 0.06325 µM) | relative viability (Doramapimod + AZD7762; first compound 0.2 µM) | relative viability (Doramapimod + AZD7762; first compound 0.6325 µM) | relative viability (Doramapimod + AZD7762; first compound 2 µM)
1 | NCI-H460 | 0.756 | 0.704 | 0.632 | 0.7 | 0.634 | 0.444 | 0.426 | 0.491 | 0.411 | 0.28 | 0.757 | 0.45 | 0.422 | 0.539 | 0.363 | 0.658 | 0.702 | 0.726 | 0.805 | 0.531
2 | LCLC-97TM1 | 0.356 | 0.205 | 0.307 | 0.251 | 0.247 | 0.363 | 0.299 | 0.237 | 0.22 | 0.109 | 0.933 | 0.844 | 0.945 | 1.01 | 0.83 | 0.323 | 0.328 | 0.289 | 0.168 | 0.304
3 | NCI-H1355 | 0.807 | 0.764 | 0.73 | 0.827 | 0.719 | 0.814 | 0.732 | 0.694 | 0.608 | 0.31 | 0.774 | 0.719 | 0.714 | 0.695 | 0.594 | 0.663 | 0.82 | 0.853 | 0.767 | 0.743
4 | NCI-H1666 | 0.866 | 0.815 | 0.788 | 0.962 | 0.905 | 0.806 | 0.746 | 0.707 | 0.786 | 0.703 | 0.908 | 0.825 | 0.871 | 0.836 | 0.855 | 0.9 | 0.943 | 1.01 | 0.975 | 0.851
5 | EPLC-272H | 0.185 | 0.204 | 0.218 | 0.234 | 0.16 | 0.685 | 0.499 | 0.428 | 0.209 | 0.161 | 0.337 | 0.325 | 0.413 | 0.411 | 0.543 | 0.209 | 0.209 | 0.254 |  | 0.22
6 | ChaGo-K-1 | 0.986 | 0.908 | 0.859 | 0.952 | 0.946 | 0.411 | 0.429 | 0.464 | 0.422 | 0.371 | 0.699 | 0.54 | 0.526 | 0.621 | 0.614 | 0.884 | 0.846 | 0.894 | 0.779 | 0.768
7 | NCI-H1651 | 0.573 | 0.473 | 0.411 | 0.554 | 0.499 | 0.187 | 0.17 | 0.194 | 0.185 | 0.167 | 0.652 | 0.304 | 0.486 | 0.574 | 0.458 | 0.441 | 0.478 | 0.435 | 0.441 | 0.356
8 | PC-3 [JPC-3] | 0.926 | 1.34 | 0.916 | 0.741 | 0.807 | 1.14 | 1.06 | 1.09 | 0.537 | 0.704 | 1.08 | 1.02 | 1.04 | 0.865 | 1.01 | 1.12 | 0.912 | 0.882 | 0.899 | 0.786
9 | LOU-NH91 | 0.8 | 0.747 | 0.799 | 0.76 | 0.788 | 1.02 | 0.831 | 0.9 | 0.675 | 0.737 | 0.628 | 0.568 | 0.573 | 0.542 | 0.697 | 0.757 | 0.739 | 0.7 | 0.744 | 0.575
10 | PC-14 | 0.402 | 0.362 | 0.431 | 0.328 | 0.407 | 0.252 | 0.311 | 0.314 | 0.369 | 0.245 | 0.29 | 0.278 | 0.271 | 0.268 | 0.309 | 0.521 | 0.539 | 0.353 | 0.378 | 0.325
11 | NCI-H2087 | 1.52 | 1.29 | 1.43 | 1.07 | 1.35 | 0.757 | 0.496 | 0.64 | 0.334 | 0.373 | 1.16 | 0.663 | 0.865 | 0.822 | 0.777 | 1.47 | 1.52 | 1.15 | 1.42 | 1.39
12 | SW 900 | 0.823 | 0.64 | 0.631 | 0.605 | 0.786 | 0.89 | 0.725 | 0.79 | 0.716 | 0.27 | 0.74 | 0.703 | 0.667 | 0.781 | 0.543 | 0.569 | 0.72 | 0.551 | 0.76 | 0.486
13 | LU99A | 0.403 | 0.318 | 0.28 | 0.365 | 0.309 | 0.268 | 0.283 | 0.226 | 0.185 | 0.152 | 0.584 | 0.61 | 0.642 | 0.725 | 0.669 | 0.349 | 0.37 | 0.339 | 0.339 | 0.326
14 | BEN | 0.726 | 0.656 | 0.801 | 0.767 | 0.672 | 1.04 | 1.09 | 1.16 | 1.19 | 0.846 | 0.471 | 0.35 | 0.323 | 0.342 | 0.283 | 0.58 | 0.724 | 0.72 | 0.597 | 0.681
15 | NCI-H1975 | 0.825 | 0.731 | 0.778 | 0.868 | 0.775 | 0.707 | 0.552 | 0.522 | 0.308 | 0.305 | 0.466 | 0.368 | 0.337 | 0.334 | 0.299 | 0.863 | 0.874 | 0.871 | 0.665 | 0.787
16 | NCI-H2342 | 0.429 | 0.563 | 0.502 | 0.681 | 0.542 | 0.377 | 0.37 | 0.468 | 0.395 | 0.348 | 0.308 | 0.346 | 0.343 | 0.375 | 0.305 | 0.416 | 0.513 | 0.49 | 0.486 | 0.485

Reference: the supplement of paper PMC10307832
